The subject of assay [1] is MV4-11 cell. Briefly: MV4-11 cell proliferation assay (CellTiter-Glo). Type of assay: cell-based, human. Conditions: MV4-11 cells, 72 hours, read-out: IC50 inhibiting MV4-11 cell proliferation. As for the experimental part:
Test compounds were prepared in 100% DMSO and added to the cells to achieve final concentrations from 0.2 uM to […] (10 concentration points in 3 fold serial dilution). The culture plates were then incubated at 37 C in 5% CO2 for 72 hours.
After 72 hours, the cell morphology was observed under an inverted microscope. Cell viability was then quantified at room temp using a CellTiter-Glo assay (Promega G7571) following the manufacture's instruction. Briefly, a volume of 100 ul Celltiter-Glo reagenet was added to each well to induce cell lysis. After 10 min incubation at RT, a luminescent signal was produced by measuring the amount of ATP. The signal was directly proportional to the number of viable cells present in culture.
In general terms: ATP-based viability assays read luminescence as a measure of living cells.

For assay [2], the system named is MV4-11 acute myeloid leukemia zenograft tumor model. The assay is described as follows: MV4-11 acute myeloid leukemia xenograft tumor model. In kind it is in vivo, NOD/SCID female mice. As to conditions: 3 mg/kg, po, qd, 22 days; tumor-bearing NOD/SCID mice. As for the experimental part: Compound C (18 mg) in 22% 2-hydroxypropyl-β=cyclodextrin (60 ml), ultrasonic 15 min to dissolve, an average of 2.14 ml divided into each of the small bottle, reserved 22 bottles for experiment.
6-8 weeks NOD/SCID female mice (18-25 g) were used. Each mouse was inoculated subcutaneously at the right flank with MV4-11 tumor cells (1×10^7) in 0.1 ml of PBS/Matrigel (1:1) for tumor development. The treatments were started when the mean tumor size reached 188 mm^3. The animals were separated even as test and control group randomly, and each group is consisted of 6 tumor-bearing mice. The test articles were orally administered (2.14 ml) to the tumor-bearing mice once a day. The date of tumor cell inoculation is denoted as day 0. The tumor volume was measured every four days, and the animals were scarified at 22 days. Statistical analyses of difference in tumor volume among the groups were evaluated using a one-way ANOVA followed by individual comparisons using Games-Howell (equal variance not assumed).
All data were analyzed using SPSS 17.0. p<0.05 was considered to be statistically significant. The antitumor activities of compounds of disclose are calculated by the formula: T C %=TRTV/CRTV×100%. (TRTV: drug treated group RTV; CRTV: vehicle treated group RTV). Evaluation standard: T/C (%)>40% considered as not effective; T/C (%) 40% considered as effective with P<0.05.

Assay [3] has as its target FLT3 (Homo sapiens (Human), UniProt P36888). The assay is described as follows: FLT3 kinase inhibition assay (Caliper mobility shift assay). In kind it is biochemical. Conditions: 0.9 nM purified FLT3, 97 uM ATP, 28° C., 60 min; read-out: IC50 inhibiting the FLT3 kinase. As for the experimental part: The average of inhibitory rate of Flt3 kinase and IC50 was determined by a Caliper's mobility shift assay (MSA).
FLT3 is a receptor tyrosine kinase involved in survival and proliferation of leukemic cells. Constitutively activating FLT3 mutations has been found in about 30% of all patients with acute myeloid leukemia (AML). The tested compounds were screened for their ability to inhibit FLT3 kinase activity using Caliper's mobility shift assay (MSA). The assay uses a microfluidic chip to measure the conversion of a fluorescent peptide substrate to a phosphorylated product following separation by electrophoresis.
Data were collected on Caliper and converted into inhibition values. IC50 values were obtained using XLfit graphic program.

Read-outs that look alike come from different tables or passages of the source.

The T/C is the ratio of treated to control.

Chain of FLT3 (P36888 27-993): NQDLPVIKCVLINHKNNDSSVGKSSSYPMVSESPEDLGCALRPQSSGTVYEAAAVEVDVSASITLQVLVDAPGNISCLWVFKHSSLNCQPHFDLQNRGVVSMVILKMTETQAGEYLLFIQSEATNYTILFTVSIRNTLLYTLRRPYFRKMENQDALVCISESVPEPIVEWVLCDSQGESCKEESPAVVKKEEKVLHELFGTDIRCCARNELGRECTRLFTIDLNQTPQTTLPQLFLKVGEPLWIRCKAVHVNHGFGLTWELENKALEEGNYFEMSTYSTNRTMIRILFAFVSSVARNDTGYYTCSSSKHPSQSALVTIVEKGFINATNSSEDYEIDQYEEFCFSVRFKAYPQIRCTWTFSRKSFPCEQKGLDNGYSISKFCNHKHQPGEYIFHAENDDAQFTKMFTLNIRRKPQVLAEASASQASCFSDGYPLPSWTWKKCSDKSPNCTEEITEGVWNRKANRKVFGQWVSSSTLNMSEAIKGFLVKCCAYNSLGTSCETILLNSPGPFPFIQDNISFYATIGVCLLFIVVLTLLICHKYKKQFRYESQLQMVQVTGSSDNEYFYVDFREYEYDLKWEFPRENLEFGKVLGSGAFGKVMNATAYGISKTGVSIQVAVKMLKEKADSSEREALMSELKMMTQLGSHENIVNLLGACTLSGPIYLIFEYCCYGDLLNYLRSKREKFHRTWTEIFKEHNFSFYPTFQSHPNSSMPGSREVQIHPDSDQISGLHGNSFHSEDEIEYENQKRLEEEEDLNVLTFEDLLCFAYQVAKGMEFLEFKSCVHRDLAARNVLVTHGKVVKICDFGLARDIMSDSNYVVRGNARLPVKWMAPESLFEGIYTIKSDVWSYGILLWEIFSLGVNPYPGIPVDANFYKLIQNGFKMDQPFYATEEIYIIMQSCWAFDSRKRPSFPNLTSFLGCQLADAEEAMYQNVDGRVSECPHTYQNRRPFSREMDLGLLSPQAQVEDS

As to `CN(C)CCNc1ncc2c(n1)sc1nc(-c3ccc(NC(=O)Nc4cc(C(C)(C)C)on4)cc3)cn12` [Compound 97-1], the IC50 in assay [1] (Homo sapiens) worked out at 0.03 nM.
Regarding `CCN(CC)CCNc1ncc2c(n1)sc1nc(-c3ccc(NC(=O)Nc4cc(C(C)(C)C)on4)cc3)cn12` [Compound 97-2], in assay [1] (Homo sapiens), the IC50 was found to be 0.42 nM.
On the same count and under the same terms, next, `CC(C)(C)c1cc(NC(=O)Nc2ccc(-c3cn4c(n3)sc3nc(NCCN5C[C@@H]6C[C@H]5CO6)ncc34)cc2)no1` [Compound 97-3]: 0.07 nM.
In assay [2], `CC(C)(C)c1cc(NC(=O)Nc2ccc(-c3cn4c(n3)sc3cc(OCCN5CCOCC5)ccc34)cc2)no1` [Quizartinib, reference compound] came in with a T/C of 9%. Further, the IC50 in assay [1] (Homo sapiens) turned out to be 0.56 nM.
Consider `CC(C)(C)c1cc(NC(=O)Nc2ccc(-c3cn4c(n3)sc3nc(N5CCOCC5)ncc34)cc2)no1` [compound 8-1], for which the IC50 in assay [3] stood at 19 nM.
Regarding `CC(C)(C)c1cc(NC(=O)Nc2ccc(-c3cn4c(n3)sc3nc(N5CCNCC5)ncc34)cc2)no1` [compound 8-4], in assay [1] (Homo sapiens), the IC50 came to 1.1 nM.
On the same count and under the same terms, next, `CC(C)(C)c1cc(NC(=O)Nc2ccc(-c3cn4c(n3)sc3nc(N5CCC(N6CCOCC6)CC5)ncc34)cc2)no1` [compound 8-6]: 1.26 nM; `CC(C)(C)c1cc(NC(=O)Nc2ccc(-c3cn4c(n3)sc3nc(OCCN5CCOCC5)ccc34)cc2)no1` [compound 28-1]: 0.7 nM.
Take `CN(C)CCOc1ccc2c(n1)sc1nc(-c3ccc(NC(=O)Nc4cc(C(C)(C)C)on4)cc3)cn12` [compound 28-2]: the IC50 in assay [1] (Homo sapiens) came out at 0.2 nM; in assay [3], 18 nM.
For `CC(C)(C)c1cc(NC(=O)Nc2ccc(-c3cn4c(n3)sc3nc(OCCN5CCNCC5)ccc34)cc2)no1` [compound 28-3], the values for the IC50 in assay [1] (Homo sapiens) and in assay [3] were 0.4 nM and 34 nM, respectively.
Take `CC(C)(C)c1cc(NC(=O)Nc2ccc(-c3cn4c(n3)sc3nc(OCCCN5CCOCC5)ccc34)cc2)no1` [compound 28-6]: the results for the IC50 in assay [1] (Homo sapiens) and in assay [3] were 0.4 nM and 47 nM, respectively.
On the same counts, the results for `CC(C)(C)c1cc(NC(=O)Nc2ccc(-c3cn4c(n3)sc3nc(OCCN5C[C@@H]6C[C@H]5CN6)ccc34)cc2)no1` [compound 28-7] are 0.3 nM and 1.2 nM.
As to `CN1C[C@@H]2C[C@H]1CN2CCOc1ccc2c(n1)sc1nc(-c3ccc(NC(=O)Nc4cc(C(C)(C)C)on4)cc3)cn12` [compound 28-8], the results for the IC50 in assay [1] (Homo sapiens) and in assay [3] were 0.2 nM and 10.9 nM, respectively.
The corresponding values for `CC(C)(C)c1cc(NC(=O)Nc2ccc(-c3cn4c(n3)sc3nc(OCC5CCNCC5)ccc34)cc2)no1` [compound 28-9] are 0.3 nM and 11 nM.
On the same counts, the results for `CN1CCC(COc2ccc3c(n2)sc2nc(-c4ccc(NC(=O)Nc5cc(C(C)(C)C)on5)cc4)cn23)CC1` [compound 28-10] are 0.3 nM and 13 nM.
With `CC(C)(C)c1cc(NC(=O)Nc2ccc(-c3cn4c(n3)sc3nc(OCC5CNC5)ccc34)cc2)no1` [compound 28-11], the IC50 in assay [1] (Homo sapiens) amounted to 0.84 nM.
Still for that read-out and setting: next, `CC(C)(C)c1cc(NC(=O)Nc2ccc(-c3cn4c(n3)sc3nc(OCC5CNCCO5)ccc34)cc2)no1` (centres unmarked) [compound 28-12]: 0.47 nM; `CN1CCOC(COc2ccc3c(n2)sc2nc(-c4ccc(NC(=O)Nc5cc(C(C)(C)C)on5)cc4)cn23)C1` (centres unmarked) [compound 28-13]: 0.3 nM.
For `CCN(CC)CCOc1ccc2c(n1)sc1nc(-c3ccc(NC(=O)Nc4cc(C(C)(C)C)on4)cc3)cn12` [compound 28-14], the IC50 is 0.03 nM in assay [1] (Homo sapiens) and 9.6 nM in assay [3].
`CC(C)(C)c1cc(NC(=O)Nc2ccc(-c3cn4c(n3)sc3nc(OCCN5C[C@@H]6C[C@H]5CO6)ccc34)cc2)no1` [compound 28-15]: the IC50 in assay [1] (Homo sapiens) was 0.05 nM; in assay [3], 68 nM.
The corresponding values for `CC(C)(C)c1cc(NC(=O)Nc2ccc(-c3cn4c(n3)sc3nc(OCC5(N)CC5)ccc34)cc2)no1` [compound 35-1] are 1.4 nM and 38 nM.
`CC(=O)NC1(COc2ccc3c(n2)sc2nc(-c4ccc(NC(=O)Nc5cc(C(C)(C)C)on5)cc4)cn23)CC1` [compound 35-2]: in assay [1] (Homo sapiens), the IC50 came out at 0.52 nM.
On to `CC(C)(C)c1cc(NC(=O)Nc2ccc(-c3cn4c(n3)sc3nc(OCC5(NS(C)(=O)=O)CC5)ccc34)cc2)no1` [compound 35-3], for which the IC50 in assay [1] (Homo sapiens) came out at 12.9 nM.
Consider `CC(C)(C)c1cc(NC(=O)Nc2ccc(-c3cn4c(n3)sc3nc(OC[C@@H]5CCCN5)ccc34)cc2)no1` [compound 35-4], for which, in assay [1] (Homo sapiens), the IC50 is 0.9 nM.
Turning to `CNC1(COc2ccc3c(n2)sc2nc(-c4ccc(NC(=O)Nc5cc(C(C)(C)C)on5)cc4)cn23)CC1` [compound 39-1], the IC50 in assay [1] is 0.5 nM; in assay [3], 52 nM.
For the compound `CC(C)(C)c1cc(NC(=O)Nc2ccc(-c3cn4c(n3)sc3nc(N5CCOCC5)ccc34)cc2)no1` [compound 46], the IC50 in assay [1] (Homo sapiens) was determined as 0.8 nM.
In the case of `CC(C)(C)c1cc(NC(=O)Nc2ccc(-c3cn4c(n3)sc3nc(NCCN5CCOCC5)ccc34)cc2)no1` [compound 53-1], the figures for the IC50 in assay [1] (Homo sapiens) and in assay [3] were 0.2 nM and 29 nM, respectively.
On the same counts, the results for `CN(CCN1CCOCC1)c1ccc2c(n1)sc1nc(-c3ccc(NC(=O)Nc4cc(C(C)(C)C)on4)cc3)cn12` [compound 53-2] are 0.5 nM and 43 nM.
Regarding `CC(C)(C)c1cc(NC(=O)Nc2ccc(-c3cn4c(n3)sc3nc(NCC5(N)CC5)ccc34)cc2)no1` [compound 63-1], in assay [1] (Homo sapiens), the IC50 was determined as 0.96 nM.
Same read-out and setting: next, `CNC1(CNc2ccc3c(n2)sc2nc(-c4ccc(NC(=O)Nc5cc(C(C)(C)C)on5)cc4)cn23)CC1` [compound 63-2]: 0.58 nM.
As for `CNC1(COc2ccc3c(c2)sc2cc(-c4ccc(NC(=O)Nc5cc(C(C)(C)C)on5)cc4)cn23)CC1` [compound 80], the IC50 in assay [1] (Homo sapiens) amounted to 4.7 nM.
With `CN(C)CCNc1ccc2c(n1)sc1nc(-c3ccc(NC(=O)Nc4cc(C(C)(C)C)on4)cc3)cn12` [compound 89-1], the IC50 in assay [1] was 0.03 nM; in assay [3] it was 10 nM.
Turning to `CCN(CC)CCNc1ccc2c(n1)sc1nc(-c3ccc(NC(=O)Nc4cc(C(C)(C)C)on4)cc3)cn12` [compound 89-3], the IC50 was determined as 0.04 nM in assay [1] and 19 nM in assay [3].
In the case of `CC(C)(C)c1cc(NC(=O)Nc2ccc(-c3cn4c(n3)sc3nc(NCCN5C[C@@H]6C[C@H]5CO6)ccc34)cc2)no1` [compound 89-4], the IC50 in assay [1] was 0.08 nM; in assay [3], 28 nM.
For the compound `CC(C)(C)c1cc(NC(=O)Nc2ccc(-c3cn4c(n3)sc3nc(N5CCC(N6CCOCC6)CC5)ccc34)cc2)no1` [compound 89-5], the IC50 in assay [1] was 0.29 nM; in assay [3], 34 nM.

The values above are taken from patent US9216997B2, “Tri-heterocyclic derivatives, preparation process and uses thereof” (SHANGHAI DE NOVO PHARMATECH CO LTD., priority 2011, dated 2015).
